What is called IC50 is the concentration at which inhibition is half-maximal. Lower therefore signals higher potency.

In the assay the test system is P388. Put plainly: Cytotoxicity against mouse P388 cells. Format: functional, cell-based.

`C1=C\CCCCCC[C@@H]2CN3CC/C=C/C=C\CCCCc4cc(c[n+](c4)CC\C=C/1)[C@@H]2CC3.O=C(O)C(F)(F)F.O=C([O-])C(F)(F)F` [TETRADEHYDROHALICYCLAMINE A] showed a half-inhibitory concentration (IC50) of 2.2 µg/mL. `C1=C2CCCC/C=C\C=C\CCN3CC[C@@H]4[C@H](CCCCCC/C=C\C=C/CCN(C2)C[C@H]14)C3.O=C(O)C(F)(F)F.O=C(O)C(F)(F)F` [HALICYCLAMINE A TFA] returned an IC50 of 0.45 µg/mL.

Values taken from ChEMBL document CHEMBL1148933, “Tetradehydrohalicyclamine A and 22-hydroxyhalicyclamine A, new cytotoxic bis-piperidine alkaloids from a marine sponge Amphimedon sp” (J Nat Prod, 2004).
